We go through six molecules from US10729710B2, “Catecholamine prodrugs for use in the treatment of Parkinson's disease” (H. Lundbeck A/S, priority 2017, dated 2020).

pEC50: −log10 of the molar value. Counter-ions that a name gives are not always drawn. A value given as a limit tells only on which side of the number the result lay.

In one series the target is human D2 receptor (Homo sapiens (Human), UniProt P14416). As to the kind of experiment: Dopamine D2 receptor agonism, calcium mobilization assay. It is filed as cell-based. The method, then:
Dopamine D2 receptor agonism was measured using a calcium mobilization assay protocol developed by HD Biosciences (China). Briefly, HEK293/G15 cells expressing human D2 receptor were plated at a density of 15000 cells/well in clear-bottomed, Matrigel-coated 384-well plates and grown for 24 hrs at 37° C. in the presence of 5% CO2. The cells were incubated with calcium-sensitive fluorescent dye, Fluo8, for 60-90 minutes at 37° C. in the dark. Test compounds were prepared at 3-fold concentrated solution in 1×HBSS buffer with Ca^2+ and Mg^2+. Calcium Flux signal was immediately recorded after compounds were added from compound plate to cell plate at FLIPR (Molecular Devices). The fluorescence data were normalized to yield responses for no stimulation (buffer) and full stimulation (1 μM of dopamine) of 0% and 100% stimulation, respectively. Test compound potency (EC50) was estimated by nonlinear regression using the sigmoidal dose-response (variable slope) using Xlfit 4 (IDBS, Guildford, Surrey, UK, model 205). y=(A+((B−A)/(1+((C/x)^D)))) where y is the normalized ratio measurement for a given concentration of test compound, x is the concentration of test compound, A is the estimated efficacy at infinite compound dilution, and B is the maximal efficacy. C is the EC50 value and D is the Hill slope coefficient. EC50 estimates were obtained from independent experiment and the logarithmic average was calculated.
In general terms: A change in cytosolic calcium serves as a functional read-out for many receptors and channels.

A further series has as its target human 5-HT2B receptor (Homo sapiens (Human), UniProt P41595). As to the kind of experiment: 5-HT2B agonist activity assay (IP1 production, HTRF). It counts as cell-based. As for the experimental part: Evaluation of the agonist activity of compounds (I), (Ia) and (Ib) at the human 5-HT2B receptor was performed by Eurofins/Cerep (France) measuring the compound effects on inositol monophosphate (IP1) production using the HTRF detection method. Briefly, the human 5-HT2B receptor was expressed in transfected CHO cells. The cells were suspended in a buffer containing 10 mM Hepes/NaOH (pH 7.4), 4.2 mM KCl, 146 mM NaCl, 1 mM CaCl2, 0.5 mM MgCl2, 5.5 mM glucose and 50 mM LiCl, then distributed in microplates at a density of 4100 cells/well and incubated for 30 min at 37° C. in the presence of buffer (basal control), test compound or reference agonist. For stimulated control measurement, separate assay wells contained 1 μM 5-HT. Following incubation, the cells were lysed and the fluorescence acceptor (fluorophen D2-labeled IP1) and fluorescence donor (anti-IP1 antibody labeled with europium cryptate) were added. After 60 min at room temperature, the fluorescence transfer was measured at lambda(Ex) 337 nm and lambda(Em) 620 and 665 nm using a microplate reader (Rubystar, BMG). The IP1 concentration was determined by dividing the signal measured at 665 nm by that measured at 620 nm (ratio). The results were expressed as a percent of the control response to 1 μM 5-HT. The standard reference agonist was 5-HT, which was tested in each experiment at several concentrations to generate a concentration-response curve from which its EC50 value is calculated as described above for dopamine functional assays.
For orientation: In TR-FRET formats the signal depends on donor and acceptor labels being close together.

Series [1] can be described thus: PK experiments in rats: plasma compound (I) after oral dosing of prodrugs. It is filed as in vivo, Han Wistar rats. Particulars: Wistar rats, FIG. 2, doses equal to 287 μg/kg of compound (I). As for the experimental part:
Plasma was placed on water-ice following collection. Final storage at approximately −70° C.
Mobile phase B: Acetonitrile. […] Flow rate 0.5 mL/min.
The rats had unrestricted access to the diet.
Mobile phase B: Acetonitrile+0.2% formic acid. […] Flow rate 0.3 mL/min.
Han Wistar rats were supplied by Envigo, UK. […] The rats received a standard laboratory diet Teklad 2014C. The rats had unrestricted access to the diet.

A further series deals with human D1 receptor (Homo sapiens (Human), UniProt P21728). Nature of the series: Dopamine D1 receptor agonism, HTRF cAMP assay. Particulars: HEK-293 cells expressing human D1 receptor, cAMP. It counts as cell-based. As for the experimental part:
Dopamine D1 receptor agonism was measured using a HTRF cAMP from CisBio using the protocol developed by HD Biosciences (China). Briefly, the assay is a homogeneous time resolved-fluorescence resonance energy transfer (HTRF) assay that measures production of cAMP by cells in a competitive immunoassay between native cAMP produced by cells and cAMP-labeled with XL-665. A cryptate-labeled anti-cAMP antibody visualizes the tracer. The assay was performed in accordance with instructions from manufacturer.
Test compounds were added to wells of microplates (384 format). HEK-293 cells expressing the human D1 receptor were plated at 1000 cells/well and incubated 30 min at room temperature. cAMP-d2 tracer was added to wells and followed by addition of Anti-cAMP antibody-cryptate preparation and incubated for 1 h at room temperature in dark. HTRF cAMP was measured by excitation of the donor with 337 nm laser (the “TRF light unit”) and subsequent (delay time 100 microseconds) measurement of cryptate and d2 emission at 615 nm and 665 nm over a time window of 200 microseconds with a 2000 microseconds time window between repeats/100 flashes). HRTF measurements were performed on an Envision microplate reader (PerkinElmer). The HTRF signal was calculated as the emission-ratio at 665 nm over 615 nm. The HTRF ratio readout for test compounds was normalized to 0% and 100% stimulation using control wells with DMSO-solvent or 30 uM dopamine. Test compound potency (EC50) was estimated by nonlinear regression using the sigmoidal dose-response (variable slope) using Xlfit 4 (IDBS, Guildford, Surrey, UK, model 205). y=(A+((B−A)/(1+((C/x)^D)))) where y is the normalized HTRF ratio measurement for a given concentration of test compound, x is the concentration of test compound, A is the estimated efficacy at infinite compound dilution, and B is the maximal efficacy. C is the EC50 value and D is the Hill slope coefficient. EC50 estimates were obtained from an independent experiment and the logarithmic average was calculated. Dopamine D2 Receptor Agonism

Another series relates to male CD rats. Nature of the series: Rat locomotor activity (hyperactivity) assay, open field. It is filed as in vivo. Particulars: for time until locomotor effect is gone: apomorphine: post administration, pramipexole: after appearance of effect, (Id-ia): recording ended at 415-minute time point. As for the experimental part: In total, 206 male CD rats (Charles River, Germany) weighing 200-250 grams (165-190 grams upon arrival) were used in the study. Animals were housed at a standard temperature (22±1° C.) and in a light-controlled environment (lights on from 7 am to […]) with ad libitum access to food and water. The experiment described below was performed in accordance with the standard operating procedures of Charles River Discovery Research Services Finland Ltd. and in accordance with the national Animal Experiment Board of Finland (Eläinkoelautakunta, ELLA) authority on animal testing.
The test device is a square Plexiglass-arena (measuring 40×40×40 cm), in which the movement paths of the rats are recorded by an activity monitor (Med. Associates Inc.). Before the test period is initiated, rats are habituated to their test cage for 60 minutes. Upon completion of habituation, animals were treated with either compound or vehicle and placed back into the open field apparatus. The main test parameter measured is ambulatory distance (recorded in 5 minute segments). Overall time of measurement after receiving initial treatment was 360 minutes. Total follow up period in the study was 420 min, including 60 min of habituation.

A short description of series [2]: Conversion to compound (I) in fresh rat blood. Particulars: fresh blood 37° C., 1 μg/mL, 0-60 minutes, FIG. 8a. It is filed as in vitro ADME. As for the experimental part: (§1) Conversion of (Id-ia), (Id-ib), (Id-iia) and (Id-iib) in human blood (average of 3 donors) and rat blood (average of 45 donors) to (I) was shown in fresh blood at 37° C. spiked with 1 μg/mL of (Id-ia), (Id-ib), (Id-iia) and (Id-iib) separately, (I) was measured at 0, 5, 15, 30 and 60 minutes in isolated plasma. Analysis method and Instrumentation as described in Examples 4 and 5 below in the section “Instrumentation used for analysis of compound (I) from dosing of compounds (Ic), (Id-ia), (Id-ib), (Id-iia), (Id-iib), (Id-iab) and (Id-iiab).”

The next series concerns hepatocytes from rat. As to the kind of experiment: Conversion to compound (I) in rat hepatocytes. It counts as in vitro ADME. Particulars: 1 μg/mL, 37° C., 0.25-60 minutes, FIG. 7a. The method, then:
(§2) The cell concentration at incubation was 1×10^6 viable cells/mL. The incubations were performed in glass tubes at 37° C. with a total incubation volume of 3.5 mL and with duplicate incubations for each test item. The 3.5 mL of hepatocyte suspension was equilibrated for 10 minutes in a water bath set to 37° C. where after the incubations were initiated by adding 3.5 μL of a stock solution of the test item in DMSO (Dimethyl sulfoxide) and gently inverting the tubes. The final solvent concentration in the incubations was 0.1% DMSO. Samples of 600 μL were withdrawn from the incubations at the pre-determined time points of 0.25, 5, 15, 30 and 60 minutes after ensuring homogeneity of hepatocyte suspensions. The withdrawn volume was added to 1 mL Nunc cryo tubes on wet ice containing 60 μL of ice cold ascorbic acid (100 mg/mL) and 30 μL of ice cold 100 mM saccharic acid 1.4-lactone in 0.5 M citric acid. The tubes were mixed and 35 μL of a solution of ice cold 20% formic acid was added. The tubes were mixed thoroughly and stored at −80° C. awaiting analysis. Analysis method and Instrumentation used for analysis of (I) from dosing (Id-ia), (Id-ib), (Id-iia) and (Id-iib), were the one described in Examples 4 and 5 below in the section “Instrumentation used for analysis of compound (I) from dosing of compounds (Ic), (Id-ia), (Id-ib), (Id-iia), (Id-iib), (Id-iab) and (Id-iiab).”
(§3) Analysis method and Instrumentation used for analysis of (I) from dosing (Id-iab) and (Id-iiab) consisted of mixing equal aliquots of the samples and precipitation solution (acetonitrile (MeCN) with 10% methanol (MeOH) and 1% formic acid), followed by centrifugation at 4° C. at 16000 g for 10 minutes. Supernatants were collected and analysed by LC-MS/MS. Mass spectrometer: Waters Acquity—Waters Xevo TQ-MS. Analytical column: Acquity UPLC HSS T3, 100×2.1 mm, 1.8 μm. Mobile phase A: 0.2% formic acid in water. Mobile phase B: 0.2% formic acid in acetonitrile. Gradient run from 95/5% to 60/40 in 5 min. Flow rate 0.3 mL/min. MRM monitoring of (I) in the study samples and in the analytical standards.

A further series relates to hepatocytes from human. As to the kind of experiment: Conversion to compound (I) in human hepatocytes. It counts as in vitro ADME. As to conditions: 1 μg/mL, 37° C., 0.25-60 minutes, FIG. 7b. As for the experimental part:
as §2, §3

Series [3] can be described thus: Conversion to compound (I) in fresh human blood. It counts as in vitro ADME. Particulars: fresh blood 37° C., 1 μg/mL, 0-60 minutes, FIG. 8b. The method, then:
as §1

In general, pEC50 refers to −log10 of the EC50, conventionally taken in molar units. As a reminder, the Emax is the maximal effect, on the per cent scale that the assay sets.

human 5-HT2B receptor, sequence (P41595 whole entry): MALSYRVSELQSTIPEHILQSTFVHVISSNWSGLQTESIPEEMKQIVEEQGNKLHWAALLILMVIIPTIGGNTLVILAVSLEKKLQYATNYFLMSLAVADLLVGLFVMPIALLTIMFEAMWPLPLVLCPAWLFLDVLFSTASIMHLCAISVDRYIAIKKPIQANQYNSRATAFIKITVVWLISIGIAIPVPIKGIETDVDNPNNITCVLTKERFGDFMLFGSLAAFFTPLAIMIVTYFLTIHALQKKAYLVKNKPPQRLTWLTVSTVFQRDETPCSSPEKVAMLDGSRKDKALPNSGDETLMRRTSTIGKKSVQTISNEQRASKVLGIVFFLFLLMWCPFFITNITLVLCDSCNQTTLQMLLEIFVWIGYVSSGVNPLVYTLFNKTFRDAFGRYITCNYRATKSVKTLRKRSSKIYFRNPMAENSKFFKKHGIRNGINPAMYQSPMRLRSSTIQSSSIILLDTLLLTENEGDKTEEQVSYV
human D1 receptor, sequence (P21728 whole entry): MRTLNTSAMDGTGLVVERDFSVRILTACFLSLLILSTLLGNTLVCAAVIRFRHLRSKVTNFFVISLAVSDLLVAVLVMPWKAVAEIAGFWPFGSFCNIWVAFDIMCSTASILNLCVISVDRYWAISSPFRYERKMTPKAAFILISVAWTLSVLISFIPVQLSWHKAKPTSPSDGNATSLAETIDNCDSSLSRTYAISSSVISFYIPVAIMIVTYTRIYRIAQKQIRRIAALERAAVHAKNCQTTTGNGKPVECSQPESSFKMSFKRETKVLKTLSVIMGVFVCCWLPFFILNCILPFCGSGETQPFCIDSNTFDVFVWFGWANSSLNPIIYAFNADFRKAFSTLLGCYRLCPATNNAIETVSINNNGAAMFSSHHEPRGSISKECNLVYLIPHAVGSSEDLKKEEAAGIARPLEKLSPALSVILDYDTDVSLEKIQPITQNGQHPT
human D2 receptor, sequence (P14416 whole entry): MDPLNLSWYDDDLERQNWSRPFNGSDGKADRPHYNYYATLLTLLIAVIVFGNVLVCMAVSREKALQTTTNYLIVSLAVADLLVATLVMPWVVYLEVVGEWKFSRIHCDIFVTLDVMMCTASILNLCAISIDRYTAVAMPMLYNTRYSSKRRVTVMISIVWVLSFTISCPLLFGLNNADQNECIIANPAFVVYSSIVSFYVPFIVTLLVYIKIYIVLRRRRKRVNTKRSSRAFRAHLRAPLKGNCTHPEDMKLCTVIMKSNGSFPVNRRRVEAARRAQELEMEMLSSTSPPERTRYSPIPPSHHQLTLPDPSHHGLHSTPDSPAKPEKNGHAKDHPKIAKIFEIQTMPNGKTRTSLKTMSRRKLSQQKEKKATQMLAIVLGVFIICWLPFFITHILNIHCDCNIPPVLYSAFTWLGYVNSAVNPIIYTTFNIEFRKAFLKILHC

With `CCCN1CCC[C@@H]2CC3=C(CCCC3=O)C[C@H]21` [(Ia), reference compound], the pEC50 at human D2 receptor (HEK293/G15 cells expressing human D2 receptor, calcium flux) is under 6.00; at human 5-HT2B receptor (CHO cells, IP1 production) it was under 5.22; on human D1 receptor it was under 6.00. In addition, the “5-HT2B agonist effect at concentration indicated” value at human 5-HT2B receptor (@30 uM, percent of control response to 1 μM 5-HT) worked out at 58%. The “plasma profile of compound (I) after oral dosing (in words)” value (shortened to “plasma profile of compound (I)”) in series [1] was “early and high peak concentrations of compound (I)”.
For `CCCN1CCC[C@@H]2Cc3c(ccc(OC(=O)C(C)(C)C)c3OC(=O)C(C)(C)C)C[C@H]21` [(Ic), reference compound], on human 5-HT2B receptor (@10 μM), the “5-HT2B effect at concentration indicated (no asterisk)” value is reported as −5%@10. The “plasma profile of compound (I)” value in [1] was “extremely low”.
Take `CCCN[C@H]1CCc2nc(N)sc2C1` [Pramipexole, pramipexole, reference compound]: the “total distance travelled vs vehicle” value in the series with male CD rats (FIG. 4, (Id-ia) p.o., apomorphine 3 mg/kg s.c., pramipexole 0.3 mg/kg s.c.) was “significantly increased activity”. The “time until locomotor effect is gone” value in the series with male CD rats is 2.5 h.
Take `CCCN1CCC[C@@H]2Cc3c(ccc(OS(=O)(=O)O)c3O)C[C@H]21` [(Id-iib), (4aR,10aR)-6-hydroxy-1-propyl-1,2,3,4,4a,5,10,10a-octahydrobenzo[g]quinolin-7-yl hydrogen sulfate]: in [2], the “conversion to compound (I) in rat blood” value is reported as “time dependent conversion to compound (I)”. The “conversion to compound (I) in rat hepatocytes” value in the series with hepatocytes from rat is “time dependent conversion to compound (I)”. In the series with hepatocytes from human, the “conversion to compound (I) in human hepatocytes” value is “time dependent conversion to compound (I)”. In series [3], the “conversion to compound (I) in human blood” value is on record as “time dependent conversion to compound (I)”. The “plasma profile of compound (I)” value in [1] is “slower absorption rate avoiding rapid peak concentrations accompanied by a sustained exposure of compound (I) in plasma”.
For `CCCN1CCC[C@@H]2Cc3c(ccc4c3OCO4)C[C@H]21` [(Ib), reference compound], the values for the Emax at human D2 receptor (normalized to 1 μM dopamine = 100%) and at human 5-HT2B receptor (read-out: 5-HT2B Emax) were 100% and 79%, respectively. Also, the “5-HT2B agonism (in words)” value at human 5-HT2B receptor (example 3) is on record as “agonist of the 5-HT2B receptor”. The “plasma profile of compound (I)” value in [1] is “early and high peak concentrations of compound (I)”. The same molecule had a pEC50 on human D1 receptor of under 6.00.
Take `CN1CCc2cccc3c2[C@H]1Cc1ccc(O)c(O)c1-3` [apomorphine, reference compound]: the “time until locomotor effect is gone” value in the series on male CD rats turned out to be 1.5 h.
